{"source": "patent US10675271B2", "about": "“Clonidine and/or clonidine derivatives for use in the prevention and/or treatment of adverse side effects of chemotherapy” (ONXEO, priority 2015, dated 2020)", "test_system": "patients with head and neck cancer", "method": "A phase II, multicentre, randomised, double-blind, placebo-controlled study was performed to compare the efficacy of the mucoadhesive buccal tablets of Example 1D, comprising 50 μg of clonidine hydrochloride, applied once daily to that of placebo in the prevention and treatment of […] following radiotherapy in patients with head and neck cancer (suffering from a newly diagnosed squamous cell carcinoma of the oral cavity, oropharynx, hypopharynx or larynx). These patients received, within 15 weeks after curative surgery, a cumulative radiation dose of radiation ranging from 50 to 70 Gray in oral cavity, based on a daily dosing between 1.8 and 2.2 Gy, combined with platinum-based chemotherapy, based on a weekly or tri-weekly cycle. Clonidine was administered in the form of a mucoadhesive tablet that was applied into the mouth, on the upper gum, for about 30 seconds, after which it remained in place for several hours. The treatment with clonidine hydrochloride started from 1 to 3 days before radiotherapy until the end of radiotherapy, for up to 8 weeks. Patients were evaluated twice a week during the radiotherapy period, then one month after stop of radiotherapy.", "key": {"[1]": {"settings": "mucoadhesive buccal tablet of Example 1D, 50 μg clonidine hydrochloride once daily, up to 8 weeks, radiotherapy plus platinum-based chemotherapy, placebo 12.9%"}}, "data": [{"smiles": "Cl.Clc1cccc(Cl)c1NC1=NCCN1", "note": "[Clonidine]", "values": [{"measurement": "occurrence of nausea", "setting": "additional identical experiment using 100 μg of clonidine hydrochloride", "value": 46.9, "unit": "%"}, {"measurement": "Cough (reported adverse side effect, occurrence)", "setting": "[1]", "value": 5.5, "unit": "%"}, {"measurement": "Fatigue (reported adverse side effect, occurrence)", "setting": "[1]", "value": 9.1, "unit": "%"}, {"measurement": "Headache (reported adverse side effect, occurrence)", "setting": "mucoadhesive buccal tablet of Example 1D, 50 μg clonidine hydrochloride once daily, up to 8 weeks, radiotherapy plus platinum-based chemotherapy, placebo 14.5%", "value": 9.1, "unit": "%"}, {"measurement": "Diarrhoea (reported adverse side effect, occurrence)", "setting": "mucoadhesive buccal tablet of Example 1D, 50 μg clonidine hydrochloride once daily, up to 8 weeks, radiotherapy plus platinum-based chemotherapy, placebo 21.0%", "value": 12.7, "unit": "%"}, {"measurement": "Asthenia (reported adverse side effect, occurrence)", "setting": "mucoadhesive buccal tablet of Example 1D, 50 μg clonidine hydrochloride once daily, up to 8 weeks, radiotherapy plus platinum-based chemotherapy, placebo 24.2%", "value": 16.4, "unit": "%"}, {"measurement": "Vomiting (reported adverse side effect, occurrence)", "setting": "mucoadhesive buccal tablet of Example 1D, 50 μg clonidine hydrochloride once daily, up to 8 weeks, radiotherapy plus platinum-based chemotherapy, placebo 38.7%", "value": 25.5, "unit": "%"}, {"measurement": "Nausea (reported adverse side effect, occurrence)", "setting": "mucoadhesive buccal tablet of Example 1D, 50 μg clonidine hydrochloride once daily, up to 8 weeks, radiotherapy plus platinum-based chemotherapy, placebo 71.0%", "value": 52.7, "unit": "%"}]}]}
